In PubChem BioAssay (NCI):
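Five concentrations, 48 hours, 96-well plates. Abbreviation: GI50, concentration required for 50% inhibition of growth. TGI: concentration producing complete growth inhibition.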

Key:
Test in all cases: NCI anticancer screen, dose series, 48 h
786-0 renal = test system: 786-0 renal
A498 renal = test system: A498 renal
A549 NSCLC = test system: A549 NSCLC
ACHN renal = test system: ACHN renal
BT-549 breast = test system: BT-549 breast
CCRF-CEM leukemia = test system: CCRF-CEM leukemia
COLO 205 colon = test system: COLO 205 colon
DU-145 prostate = test system: DU-145 prostate
EKVX NSCLC = test system: EKVX NSCLC
HCC-2998 colon = test system: HCC-2998 colon
HCT-116 colon = test system: HCT-116 colon
HCT-15 colon = test system: HCT-15 colon
HL-60(TB) leukemia = test system: HL-60(TB) leukemia
HOP-62 NSCLC = test system: HOP-62 NSCLC
HOP-92 NSCLC = test system: HOP-92 NSCLC
HS 578T breast = test system: HS 578T breast
HT29 colon = test system: HT29 colon
IGROV1 ovarian = test system: IGROV1 ovarian
K-562 leukemia = test system: K-562 leukemia
KM12 colon = test system: KM12 colon
LOX IMVI melanoma = test system: LOX IMVI melanoma
M14 melanoma = test system: M14 melanoma
MALME-3M melanoma = test system: MALME-3M melanoma
MCF7 breast = test system: MCF7 breast
MDA-MB-231 breast = test system: MDA-MB-231 breast
MDA-MB-435 = test system: MDA-MB-435
MOLT-4 leukemia = test system: MOLT-4 leukemia
NCI-H226 lung = test system: NCI-H226 lung
NCI-H23 lung = test system: NCI-H23 lung
NCI-H460 lung = test system: NCI-H460 lung
NCI-H522 lung = test system: NCI-H522 lung
NCI/ADR-RES ovarian = test system: NCI/ADR-RES ovarian
OVCAR-3 ovarian = test system: OVCAR-3 ovarian
OVCAR-4 ovarian = test system: OVCAR-4 ovarian
OVCAR-5 ovarian = test system: OVCAR-5 ovarian
OVCAR-8 ovarian = test system: OVCAR-8 ovarian
PC-3 prostate = test system: PC-3 prostate
RPMI-8226 leukemia = test system: RPMI-8226 leukemia
RXF 393 renal = test system: RXF 393 renal
SF-268 CNS = test system: SF-268 CNS
SF-295 CNS = test system: SF-295 CNS
SF-539 CNS = test system: SF-539 CNS
SK-MEL-2 melanoma = test system: SK-MEL-2 melanoma
SK-MEL-28 melanoma = test system: SK-MEL-28 melanoma
SK-MEL-5 melanoma = test system: SK-MEL-5 melanoma
SK-OV-3 ovarian = test system: SK-OV-3 ovarian
SN12C renal = test system: SN12C renal
SNB-19 CNS = test system: SNB-19 CNS
SNB-75 CNS = test system: SNB-75 CNS
SR leukemia = test system: SR leukemia
SW-620 colon = test system: SW-620 colon
T-47D breast = test system: T-47D breast
TK-10 renal = test system: TK-10 renal
U251 CNS = test system: U251 CNS
UACC-257 melanoma = test system: UACC-257 melanoma
UACC-62 melanoma = test system: UACC-62 melanoma
UO-31 renal = test system: UO-31 renal

O=c1ccccc(-c2ccc(Br)cc2)c1O
GI50 (786-0 renal): 408 nM
TGI (786-0 renal): 21.7 µM
GI50 (A498 renal): 1210 nM
TGI (A498 renal): 7.68 µM
GI50 (A549 NSCLC): 322 nM
TGI (A549 NSCLC): 24 µM
GI50 (ACHN renal): 367 nM
TGI (ACHN renal): 25.1 µM
GI50 (BT-549 breast): 795 nM
TGI (BT-549 breast): 54 µM
GI50 (CCRF-CEM leukemia): 291 nM
TGI (CCRF-CEM leukemia): > 100 µM
GI50 (COLO 205 colon): 466 nM
TGI (COLO 205 colon): 27 µM
GI50 (DU-145 prostate): 595 nM
TGI (DU-145 prostate): 45 µM
GI50 (EKVX NSCLC): 343 nM
TGI (EKVX NSCLC): 15 µM
GI50 (HCC-2998 colon): 425 nM
TGI (HCC-2998 colon): 21.8 µM
GI50 (HCT-116 colon): 404 nM
TGI (HCT-116 colon): 14.6 µM
GI50 (HCT-15 colon): 256 nM
TGI (HCT-15 colon): 36 µM
GI50 (HL-60(TB) leukemia): 262 nM
TGI (HL-60(TB) leukemia): 718 nM
GI50 (HOP-62 NSCLC): 377 nM
TGI (HOP-62 NSCLC): 15.9 µM
GI50 (HOP-92 NSCLC): 6.53 µM
TGI (HOP-92 NSCLC): 34.1 µM
GI50 (HS 578T breast): 4.61 µM
TGI (HS 578T breast): 83.8 µM
GI50 (HT29 colon): 6.44 µM
TGI (HT29 colon): 36.8 µM
GI50 (IGROV1 ovarian): 432 nM
TGI (IGROV1 ovarian): > 100 µM
GI50 (K-562 leukemia): 463 nM
TGI (K-562 leukemia): > 100 µM
GI50 (KM12 colon): 430 nM
TGI (KM12 colon): 22.6 µM
GI50 (LOX IMVI melanoma): 323 nM
TGI (LOX IMVI melanoma): 13.8 µM
GI50 (M14 melanoma): 316 nM
TGI (M14 melanoma): 13.1 µM
GI50 (MALME-3M melanoma): 2180 nM
TGI (MALME-3M melanoma): 47.7 µM
GI50 (MCF7 breast): 311 nM
TGI (MCF7 breast): 46.8 µM
GI50 (MDA-MB-231 breast): 737 nM
TGI (MDA-MB-231 breast): 35.7 µM
GI50 (MDA-MB-435): 386 nM
TGI (MDA-MB-435): > 100 µM
GI50 (MOLT-4 leukemia): 334 nM
TGI (MOLT-4 leukemia): > 100 µM
GI50 (NCI-H226 lung): 1040 nM
TGI (NCI-H226 lung): 16.6 µM
GI50 (NCI-H23 lung): 528 nM
TGI (NCI-H23 lung): 15.8 µM
GI50 (NCI-H460 lung): 318 nM
TGI (NCI-H460 lung): 10.6 µM
GI50 (NCI-H522 lung): 461 nM
TGI (NCI-H522 lung): 40.9 µM
GI50 (NCI/ADR-RES ovarian): 289 nM
TGI (NCI/ADR-RES ovarian): 2370 nM
GI50 (OVCAR-3 ovarian): 412 nM
TGI (OVCAR-3 ovarian): 27.6 µM
GI50 (OVCAR-4 ovarian): 330 nM
TGI (OVCAR-4 ovarian): 27.3 µM
GI50 (OVCAR-5 ovarian): 725 nM
TGI (OVCAR-5 ovarian): > 100 µM
GI50 (OVCAR-8 ovarian): 383 nM
TGI (OVCAR-8 ovarian): > 100 µM
GI50 (PC-3 prostate): 628 nM
TGI (PC-3 prostate): 37.3 µM
GI50 (RPMI-8226 leukemia): 401 nM
TGI (RPMI-8226 leukemia): 25 µM
GI50 (RXF 393 renal): 324 nM
TGI (RXF 393 renal): 8.12 µM
GI50 (SF-268 CNS): 420 nM
TGI (SF-268 CNS): > 100 µM
GI50 (SF-295 CNS): 340 nM
TGI (SF-295 CNS): 16.8 µM
GI50 (SF-539 CNS): 458 nM
TGI (SF-539 CNS): 12.1 µM
GI50 (SK-MEL-2 melanoma): 957 nM
TGI (SK-MEL-2 melanoma): 25.8 µM
GI50 (SK-MEL-28 melanoma): 489 nM
TGI (SK-MEL-28 melanoma): 26.4 µM
GI50 (SK-MEL-5 melanoma): 247 nM
TGI (SK-MEL-5 melanoma): 701 nM
GI50 (SK-OV-3 ovarian): 428 nM
TGI (SK-OV-3 ovarian): 24.1 µM
GI50 (SN12C renal): 829 nM
TGI (SN12C renal): 16.4 µM
GI50 (SNB-19 CNS): 459 nM
TGI (SNB-19 CNS): > 100 µM
GI50 (SNB-75 CNS): 611 nM
TGI (SNB-75 CNS): 27.6 µM
GI50 (SR leukemia): 316 nM
TGI (SR leukemia): 17.1 µM
GI50 (SW-620 colon): 410 nM
TGI (SW-620 colon): 40.5 µM
GI50 (T-47D breast): 562 nM
TGI (T-47D breast): 41.3 µM
GI50 (TK-10 renal): 541 nM
TGI (TK-10 renal): 70.7 µM
GI50 (U251 CNS): 383 nM
TGI (U251 CNS): 13.6 µM
GI50 (UACC-257 melanoma): 230 nM
TGI (UACC-257 melanoma): 8.76 µM
GI50 (UACC-62 melanoma): 298 nM
TGI (UACC-62 melanoma): 1730 nM
GI50 (UO-31 renal): 369 nM
TGI (UO-31 renal): 20.4 µM
